In the Kinase Knowledgebase extract (Sharma et al. 2016) one finds IC50 and inhibition data, which are given here for 75 compounds.

In the first assay the target is MAPK14 (human) (UniProt Q16539). Put plainly: Inhibition of MAPK14 Kinase Activity.
Sequence of MAPK14 (human) (Q16539 whole entry, looked up): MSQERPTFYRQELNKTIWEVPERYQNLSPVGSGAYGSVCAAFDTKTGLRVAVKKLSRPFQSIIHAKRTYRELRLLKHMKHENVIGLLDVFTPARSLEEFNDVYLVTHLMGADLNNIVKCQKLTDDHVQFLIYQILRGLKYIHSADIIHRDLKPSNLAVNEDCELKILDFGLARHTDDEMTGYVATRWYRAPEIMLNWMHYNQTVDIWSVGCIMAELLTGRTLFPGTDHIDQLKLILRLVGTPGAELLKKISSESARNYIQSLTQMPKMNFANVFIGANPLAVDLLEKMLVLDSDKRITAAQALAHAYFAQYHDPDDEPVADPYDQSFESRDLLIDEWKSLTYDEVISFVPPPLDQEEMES
Details: not given
What is called IC50 is the midpoint of a concentration-inhibition curve. A low value points to greater potency in that assay. Turning to `CCC1(C)C(=O)N(CC(=O)N(C)OC)CCN1C(=O)c1cc(C(C)(C)C)sc1NC(=O)Nc1cccc(Cl)c1Cl` (stereo not given), the IC50 was < 5 µM.
Take `CC(C)(C)c1cc(C(=O)N2CCNC(=O)C2(C)C)c(NC(=O)Nc2cccc(Cl)c2Cl)[nH]1`: the IC50 was < 5 µM.
On the same count and under the same terms, next, `CC(C)(C)c1cc(C(=O)N2CCNC(=O)C23CCCC3)c(NC(=O)Nc2cccc(Cl)c2Cl)s1`: < 5 µM; `Cc1noc(CN2CCN(C(=O)c3cc(C(C)(C)C)sc3NC(=O)Nc3cccc(Cl)c3Cl)C(C)(CC(N)=O)C2=O)n1` (stereo not given): < 5 µM; `CC(C)(C)c1cc(NC(=O)Nc2ccc(F)c(Cl)c2Cl)c(C(=O)N2CCNC(=O)C2(C)C)o1`: < 5 µM.
Consider `CC(C)c1ccccc1NC(=O)Nc1sc(C(C)(C)C)cc1C(=O)N1CCNC(=O)CC1`, for which the IC50 is < 5 µM.
The same measure, in the same setting: next, `CON(C)C(=O)CN1CCN(C(=O)c2cc(C(C)(C)C)sc2NC(=O)Nc2cccc(Cl)c2Cl)C(C)(C)C1=O`: < 5 µM; `CNC(=O)[C@@H]1CCCN1C(=O)c1cc(C(C)(C)C)sc1NC(=O)Nc1ccc(OC(F)F)c(Cl)c1Cl`: < 5 µM.
On the same count and under the same terms, next, `CC1(C)OCC(CNC(=O)CN2CCN(C(=O)c3cc(C(C)(C)C)sc3NC(=O)Nc3cccc(Cl)c3Cl)C(C)(C)C2=O)O1` (stereo not given): < 5 µM; `CN(C)CCNC(=O)CN1CCN(C(=O)c2nc(C(C)(C)C)sc2NC(=O)Nc2cccc(Cl)c2Cl)C(C)(C)C1=O`: < 5 µM; `CN1CCN(C(=O)c2cc(C(C)(C)C)sc2NC(=O)Nc2cccc(Cl)c2Cl)C(C)(CC(N)=O)C1=O` (stereo not given): < 5 µM.
In the case of `CC(C)(C)c1cc(C(=O)N2CCNC(=O)CC2)c(NC(=O)Nc2cccc3c2OCO3)s1`, the IC50 was < 5 µM.
On the same count and under the same terms, next, `CCC1(C)C(=O)N(CCN(C)C)CCN1C(=O)c1cc(C(C)(C)C)sc1NC(=O)Nc1ccc(F)cc1` (stereo not given): < 5 µM; `CC(C)(C)c1cc(C(=O)N2CCNC(=O)C2)c(NC(=O)Nc2cccc(Cl)c2Cl)s1`: < 5 µM; `Cc1ccccc1NC(=O)Nc1sc(C(C)(C)C)cc1C(=O)N1CCN(CCN(C)C)C(=O)C1(C)C`: < 5 µM.
The same measure, in the same setting: next, `CN(C)CCNC(=O)CN1CCN(C(=O)c2cc(C(C)(C)C)[nH]c2NC(=O)Nc2cccc(Cl)c2Cl)C(C)(C)C1=O`: < 5 µM; `CCc1ccccc1NC(=O)Nc1sc(C(C)(C)C)cc1C(=O)N1CCN(CCN(C)C)C(=O)C1(C)C`: < 5 µM.
Still for that read-out and setting: next, `CC(C)(C)c1nc(C(=O)N2CCNC(=O)C2)c(NC(=O)Nc2cccc(Cl)c2Cl)s1`: < 5 µM; `COc1ccc(CC(=O)N2CCN(C(=O)c3cc(C(C)(C)C)sc3NC(=O)Nc3cccc(Cl)c3Cl)CC2)cc1`: < 5 µM.
Consider `Cc1cccc(NC(=O)Nc2sc(C(C)(C)C)cc2C(=O)N2CCN(CCN(C)C)C(=O)C2(C)C)c1Cl`, for which the IC50 is < 5 µM.
Same read-out and setting: next, `CN(C)CCNC(=O)CN1CCN(C(=O)c2sc(C(C)(C)C)cc2NC(=O)Nc2cccc(Cl)c2Cl)C(C)(C)C1=O`: < 5 µM.
As to `CC(C)(C)c1cc(C(=O)N2CCNS(=O)(=O)CC2)c(NC(=O)Nc2ccc(F)c(Cl)c2Cl)s1`, the IC50 is < 5 µM.
On the same count and under the same terms, next, `CC(C)(C)c1cc(C(=O)N2CCCC(O)C2)c(NC(=O)Nc2cccc(Cl)c2Cl)s1` (stereo not given): < 5 µM; `CC(C)(C)c1cc(C(=O)N2CCNC(=O)[C@@H]2CCc2ccccc2)c(NC(=O)Nc2cccc(Cl)c2Cl)s1`: < 5 µM; `CC(C)(C)c1cc(C(=O)N2CCNC(=O)CC2)c(NC(=O)Nc2ccc(O)c(Cl)c2Cl)s1`: < 5 µM.
As for `COC(=O)CC1(C)C(=O)NCCN1C(=O)c1cc(C(C)(C)C)[nH]c1NC(=O)Nc1cccc(Cl)c1Cl` (stereo not given), the IC50 is < 5 µM.
The same measure, in the same setting: next, `CC1CC(=O)NCCN1C(=O)c1cc(C(C)(C)C)sc1NC(=O)Nc1cccc(Cl)c1Cl` (stereo not given): < 5 µM.
The same measure, in the same setting: next, `CC(C)(C)c1cc(C(=O)N2CCN(CC(O)CO)C(=O)C2(C)C)c(NC(=O)Nc2cccc(Cl)c2Cl)s1` (stereo not given): < 5 µM.
In the case of `CC(C)(C)c1cc(C(=O)N2CCNC(=O)C2(C)CCO)c(NC(=O)Nc2cccc(Cl)c2Cl)[nH]1` (stereo not given), the IC50 is < 5 µM.
Still for that read-out and setting: next, `COC(=O)CC1(C)C(=O)NCCN1C(=O)c1cc(C(C)(C)C)sc1NC(=O)Nc1ccc(F)c(Cl)c1Cl` (stereo not given): < 5 µM; `CC(C)(C)c1nc(C(=O)N2CCC(=O)N(CCC(N)=O)CC2)c(NC(=O)Nc2cccc(Cl)c2Cl)s1`: < 5 µM; `O=C(Nc1cc(C(=O)N2CCS(=O)(=O)CC2)cc(C(F)(F)F)c1)Nc1cccc(Cl)c1Cl`: < 5 µM.
Turning to `CC(C)(C)c1cc(C(=O)N2CCNC(=O)CC2)c(NC(=O)Nc2ccccc2C(C)(C)C)s1`, the IC50 is < 5 µM.
On to `C[C@@H]1C(=O)NCCN1C(=O)c1cc(C(C)(C)C)sc1NC(=O)Nc1cccc(Cl)c1Cl`, for which the IC50 was < 5 µM.
Take `CCC1(C)C(=O)N(CC(=O)NCCN(C)C)CCN1C(=O)c1cc(C(C)(C)C)sc1NC(=O)Nc1ccc(F)c(Cl)c1Cl` (stereo not given): the IC50 is < 5 µM.
In the case of `CC(C)(C)c1cc(NC(=O)Nc2ccc(F)c(Cl)c2Cl)c(C(=O)N2CCNS(=O)(=O)CC2)[nH]1`, the IC50 is < 5 µM.
Regarding `CCC(C)(C)c1cc(NC(=O)Nc2ccc(F)c(Cl)c2Cl)c(C(=O)N2CCNC(=O)C2(C)C)[nH]1`, the IC50 was < 5 µM.
The same measure, in the same setting: next, `CN1CCN(C(=O)c2cc(C(C)(C)C)sc2NC(=O)Nc2cccc(Cl)c2Cl)C(C)(C)C1=O`: < 5 µM.
On the same count and under the same terms, next, `COC(=O)CN1CCN(C(=O)c2cc(C(C)(C)C)sc2NC(=O)Nc2cccc(Cl)c2Cl)CC1`: < 5 µM; `COCOCCN1CCN(C(=O)c2cc(C(C)(C)C)sc2NC(=O)Nc2cccc(Cl)c2Cl)C(C)(C)C1=O`: < 5 µM.
The same measure, in the same setting: next, `CC(C)(C)c1cc(C(=O)N2CCNC(=O)CC2)c(NC(=O)Nc2ccc(OC(F)F)c(Cl)c2Cl)s1`: < 5 µM.
Take `CCC1(C)C(=O)N(CC(=O)NCCN(C)C)CCN1C(=O)c1sc(C(C)(C)C)cc1NC(=O)Nc1cccc(Cl)c1Cl` (stereo not given): the IC50 is < 5 µM.
Still for that read-out and setting: next, `CC(=O)N1CCCN(C(=O)c2cc(C(C)(C)C)sc2NC(=O)Nc2cccc(Cl)c2Cl)CC1`: < 5 µM; `CN(C)CCN1CCN(C(=O)c2cc(C(C)(C)C)sc2NC(=O)Nc2ccncc2Cl)C(C)(C)C1=O`: < 5 µM; `CC(C)(C)c1cc(C(=O)N2CCNC(=O)C2)c(NC(=O)Nc2ccc3c(c2)OCO3)s1`: < 5 µM.
The same measure, in the same setting: next, `O=C(Nc1cc(C(F)(F)F)ccc1C(=O)N1CCS(=O)(=O)CC1)Nc1cccc(Cl)c1Cl`: < 5 µM; `CC(C)(C)c1cc(C(=O)N2CCNC(=O)C2(C)CC(N)=O)c(NC(=O)Nc2cccc(Cl)c2Cl)s1` (stereo not given): < 5 µM.
With `CN(C)CCN1CCN(C(=O)c2cc(C(C)(C)C)sc2NC(=O)Nc2ccccc2C(F)(F)F)C(C)(C)C1=O`, the half-inhibitory concentration (IC50) is < 5 µM.
The same measure, in the same setting: next, `CC1(C)C(=O)NCCN1C(=O)c1oc(C(F)(F)F)cc1NC(=O)Nc1ccc(F)c(Cl)c1Cl`: < 5 µM.
In the case of `CC(C)(C)c1cc(C(=O)N2CCNC(=O)CC2)c(NC(=O)Nc2ccc(C#N)c(Cl)c2Cl)s1`, the IC50 was < 5 µM.
On the same count and under the same terms, next, `Cc1c(Cl)cccc1NC(=O)Nc1sc(C(C)(C)C)cc1C(=O)N1CCNC(=O)C1(C)CCO` (stereo not given): < 5 µM; `CCC(C)(C)c1cc(NC(=O)Nc2cccc(Cl)c2Cl)c(C(=O)N2CCNC(=O)C2(C)C)[nH]1`: < 5 µM; `CC(C)(C)c1cc(C(=O)N2CCNC(=O)C23CC3)c(NC(=O)Nc2cccc(Cl)c2Cl)s1`: < 5 µM.
Still for that read-out and setting: next, `CCC1(C)C(=O)N(CC(=O)NCCN2CCCC2)CCN1C(=O)c1cc(C(C)(C)C)sc1NC(=O)Nc1cccc(Cl)c1Cl` (stereo not given): < 5 µM; `CC(C)(C)c1cc(C(=O)N2CCN(CC(=O)NCC(F)(F)F)C(=O)C2(C)C)c(NC(=O)Nc2cccc(Cl)c2Cl)s1`: < 5 µM; `CC(C)(C)c1cc(C(=O)N2CCNC(=O)CC2)c(NC(=O)Nc2ccc(F)cc2Cl)s1`: < 5 µM.
For `CC(C)(C)c1cc(C(=O)N2CCN(CC(N)=O)C(=O)C2(C)CC(N)=O)c(NC(=O)Nc2cccc(Cl)c2Cl)s1` (stereo not given), the IC50 was < 5 µM.
The same measure, in the same setting: next, `Cc1ccccc1NC(=O)Nc1sc(C(C)(C)C)cc1C(=O)N1CCNC(=O)CC1`: < 5 µM; `CC(C)(C)c1nc(C(=O)N2CCNC(=O)C2(C)C)c(NC(=O)Nc2ccc(F)c(Cl)c2Cl)s1`: < 5 µM; `CC(C)(C)c1cc(C(=O)N2CCNC(=O)C2(C)CCO)c(NC(=O)Nc2cccc(Cl)c2Cl)s1` (stereo not given): < 5 µM.
On to `CC(C)(C)c1cc(C(=O)N2CCN(CC(N)=O)C(=O)C2(C)C)c(NC(=O)Nc2cccc(Cl)c2Cl)s1`, for which the IC50 is < 5 µM.
The same measure, in the same setting: next, `COc1cccc(NC(=O)Nc2sc(C(C)(C)C)cc2C(=O)N2CCC(=O)N(CCN(C)C)CC2)c1Cl`: < 5 µM; `COC(=O)CC1(C)C(=O)NCCN1C(=O)c1sc(C(C)(C)C)cc1NC(=O)Nc1ccc(F)c(F)c1Cl` (stereo not given): < 5 µM; `CC(C)(C)c1cc(NC(=O)Nc2cccc(Cl)c2Cl)c(C(=O)N2CCNC(=O)C2(C)C)o1`: < 5 µM.
The same measure, in the same setting: next, `COC(=O)CN1CCN(C(=O)c2cc(C(C)(C)C)sc2NC(=O)Nc2cccc(Cl)c2Cl)C(C)(C)C1=O`: < 5 µM; `CN(C)CCNC(=O)CN1CCN(C(=O)c2cc(C(C)(C)C)sc2NC(=O)Nc2cccc(Cl)c2Cl)CC1`: < 5 µM.
Still for that read-out and setting: next, `CC(C)(C)c1cc(C(=O)N2CCC(=O)N(CCN)CC2)c(NC(=O)Nc2cccc(Cl)c2Cl)s1`: < 5 µM.

Still in this assay, the particulars now being: concentration not given here.
In general, inhibition refers to the share of the control response that was lost under treatment. As for `COCCOCCN1CCN(C(=O)c2cc(C(C)(C)C)sc2NC(=O)Nc2cccc(Cl)c2Cl)CCC1=O`, the inhibition lay within 76 to 100%.
For `CC(C)(C)c1cc(C(=O)N2CCNS(=O)(=O)CC2)c(NC(=O)Nc2ccc3ocnc3c2)s1`, the inhibition lay in the range of 76 to 100%.
On the same count and under the same terms, next, `Cc1cccc(NC(=O)Nc2sc(C(C)(C)C)cc2C(=O)N2CCNC(=O)CC2)c1`: 76 to 100%; `CC(C)(C)c1nc(NC(=O)Nc2cccc3ccccc23)c(C(=O)N2CCNC(=O)CC2)s1`: 76 to 100%.
Regarding `CC(C)(C)c1cc(C(=O)N2CCNC(=O)CC2)c(NC(=O)Nc2cnc(O)c3ccccc23)s1`, the inhibition was 26 to 50%.
For `CC(C)(C)c1cc(C(=O)N2CCNC(=O)C2)c(NC(=O)Nc2cccc3ccccc23)s1`, the inhibition lay within 76 to 100%.
Consider `CC(C)(C)c1cc(C(=O)N2CCNC(=O)CC2)c(NC(=O)Nc2cc(Cl)cc(Cl)c2)s1`, for which the inhibition was in the range of 76 to 100%.
`COCOCCN1CCN(C(=O)c2cc(C(C)(C)C)sc2NC(=O)Nc2cccc(Cl)c2Cl)CCC1=O`: the inhibition was 76 to 100%.
